Experimental data taken from ChEMBL document CHEMBL1201862, “PubChem BioAssay data set” (2004).
Active and inactive are the calls of the source.

Experiments:
Format in all cases: functional
[1] = biological target: DNA dC->dU-editing enzyme APOBEC-3A (Homo sapiens, UniProt P31941); test: SAR analysis of small molecule inhibitors of APOBEC3A DNA Deaminase via a fluorescence-based single-stranded DNA deaminase assay - Set 2.; conditions: read-out: IC50_Mean
[2] = biological target: DNA dC->dU-editing enzyme APOBEC-3G (Homo sapiens, UniProt Q9HC16); test: SAR analysis of small molecule inhibitors of APOBEC3G DNA Deaminase via a fluorescence-based single-stranded DNA deaminase assay - Set 2.; conditions: read-out: IC50_Mean
[3] = biological target: Leucine-rich repeat serine/threonine-protein kinase 2 (Homo sapiens, UniProt Q5S007);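 note: value from a broad kinome-wide panel profiling study in which LRRK2 was one of the kinases tested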
[4] = biological target: Mitogen-activated protein kinase kinase kinase kinase 2 (Homo sapiens, UniProt Q12851);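 note: measured as one member of a kinome-wide kinase panel, with MAP4K2 as the panel entry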
[5] = biological target: Tyrosine-protein kinase JAK3 (Homo sapiens, UniProt P52333)
[6] = biological target: Glycogen synthase kinase-3 alpha (Homo sapiens, UniProt P49840);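 note: GSK3A result taken from a broad kinome-wide kinase panel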
[7] = biological target: Mitogen-activated protein kinase kinase kinase kinase 5 (Homo sapiens, UniProt Q9Y4K4);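 note: measured as one member of a kinome-spanning kinase panel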
[8] = biological target: 5'-AMP-activated protein kinase catalytic subunit alpha-1 (Homo sapiens, UniProt Q13131)
[9] = biological target: Platelet-derived growth factor receptor alpha (Homo sapiens, UniProt P16234); test: Navigating the Kinome. Panel member name: PDGFRA
[10] = biological target: Tyrosine-protein kinase JAK2 (Homo sapiens, UniProt O60674);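 note: JAK2 tested as one member of a kinase panel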
[11] = biological target: Vascular endothelial growth factor receptor 1 (Homo sapiens, UniProt P17948);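 note: measured within a kinome-wide profiling panel, FLT1 as the panel member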
[12] = biological target: Cyclin-dependent kinase 19 (Homo sapiens, UniProt Q9BWU1); test: Navigating the Kinome. Panel member name: CDC2L6
[13] = biological target: Dual specificity protein kinase CLK2 (Homo sapiens, UniProt P49760)
[14] = biological target: Activated CDC42 kinase 1 (Homo sapiens, UniProt Q07912); test: Navigating the Kinome. Panel member name: ACK1
[15] = biological target: Cyclin-dependent kinase 9 (Homo sapiens, UniProt P50750);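 note: value from the CDK9 entry of a kinome-spanning kinase panel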
[16] = biological target: High affinity nerve growth factor receptor (Homo sapiens, UniProt P04629);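 note: NTRK1 tested as one member of a kinome-wide profiling panel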
[17] = biological target: Vascular endothelial growth factor receptor 2 (Homo sapiens, UniProt P35968)
[18] = biological target: Protein kinase C theta type (Homo sapiens, UniProt Q04759); test: Navigating the Kinome. Panel member name: PRKCQ
[19] = biological target: Leukocyte tyrosine kinase receptor (Homo sapiens, UniProt P29376); test: Navigating the Kinome. Panel member name: LTK
[20] = biological target: Dual specificity tyrosine-phosphorylation-regulated kinase 1A (Homo sapiens, UniProt Q13627);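 note: measured against DYRK1A as one member of a broad kinome profiling panel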
[21] = biological target: Calcium/calmodulin-dependent protein kinase type II subunit alpha (Homo sapiens, UniProt Q9UQM7); test: Navigating the Kinome. Panel member name: CAMK2A
[22] = biological target: Cyclin-dependent kinase 8 (Homo sapiens, UniProt P49336); test: Navigating the Kinome. Panel member name: CDK8
[23] = biological target: BDNF/NT-3 growth factors receptor (Homo sapiens, UniProt Q16620);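 note: NTRK2 measured as one member of a broad kinome-wide kinase profiling panel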
[24] = biological target: Dual specificity mitogen-activated protein kinase kinase 2 (Homo sapiens, UniProt P36507); test: Navigating the Kinome. Panel member name: MAP2K2
[25] = biological target: Dual specificity tyrosine-phosphorylation-regulated kinase 1B (Homo sapiens, UniProt Q9Y463); test: Navigating the Kinome. Panel member name: DYRK1B
[26] = biological target: Macrophage colony-stimulating factor 1 receptor (Homo sapiens, UniProt P07333);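 note: value comes from the Navigating the Kinome screening panel, CSF1R member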
[27] = biological target: ALK tyrosine kinase receptor (Homo sapiens, UniProt Q9UM73);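 note: ALK tested as one member of a kinase panel screen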
[28] = biological target: Serine/threonine-protein kinase D3 (Homo sapiens, UniProt O94806);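 note: determined within a kinase panel screen, with PRKCN as the panel member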
[29] = biological target: Death-associated protein kinase 3 (Homo sapiens, UniProt O43293);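 note: measured as one member of a kinome-wide profiling panel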
[30] = biological target: Serine/threonine-protein kinase TBK1 (Homo sapiens, UniProt Q9UHD2); test: Navigating the Kinome. Panel member name: TBK1
[31] = biological target: Mitogen-activated protein kinase 8 (Homo sapiens, UniProt P45983);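 note: value comes from one member of a kinome-wide kinase profiling panel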
[32] = biological target: Tyrosine-protein kinase receptor TYRO3 (Homo sapiens, UniProt Q06418);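 note: TYRO3 value obtained as one member of a kinome-wide profiling panel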
[33] = biological target: Activin receptor type-1 (Homo sapiens, UniProt Q04771); test: Navigating the Kinome. Panel member name: ACVR1
[34] = biological target: Macrophage-stimulating protein receptor (Homo sapiens, UniProt Q04912); test: Navigating the Kinome. Panel member name: MST1R
[35] = biological target: Mast/stem cell growth factor receptor Kit (Homo sapiens, UniProt P10721);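 note: KIT entry within a kinase panel assay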
[36] = biological target: Receptor-type tyrosine-protein kinase FLT3 (Homo sapiens, UniProt P36888);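 note: FLT3 was tested as one member of a kinome-wide kinase panel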
[37] = biological target: Mitogen-activated protein kinase 14 (Homo sapiens, UniProt Q16539);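 note: part of a kinome-wide panel, MAPK14 entry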
[38] = biological target: Mitogen-activated protein kinase kinase kinase kinase 4 (Homo sapiens, UniProt O95819)
[39] = biological target: Insulin-like growth factor 1 receptor (Homo sapiens, UniProt P08069); test: Navigating the Kinome. Panel member name: IGF1R
[40] = biological target: Fibroblast growth factor receptor 1 (Homo sapiens, UniProt P11362)
[41] = biological target: Inhibitor of nuclear factor kappa-B kinase subunit epsilon (Homo sapiens, UniProt Q14164); test: Navigating the Kinome. Panel member name: IKBKE
[42] = biological target: Cyclin-dependent kinase 5 (Homo sapiens, UniProt Q00535);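 note: CDK5 measured as one member of a kinase profiling panel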
[43] = biological target: Dual specificity mitogen-activated protein kinase kinase 1 (Homo sapiens, UniProt Q02750); test: Navigating the Kinome. Panel member name: MAP2K1
[44] = biological target: Tyrosine-protein kinase Lck (Homo sapiens, UniProt P06239);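 note: lck was assayed as one member of a kinase panel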
[45] = biological target: cAMP-dependent protein kinase catalytic subunit PRKX (Homo sapiens, UniProt P51817)
[46] = biological target: Serine/threonine-protein kinase TAO1 (Homo sapiens, UniProt Q7L7X3)
[47] = biological target: cAMP-dependent protein kinase catalytic subunit alpha (Homo sapiens, UniProt P17612)
[48] = biological target: Proto-oncogene tyrosine-protein kinase receptor Ret (Homo sapiens, UniProt P07949);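 note: measured within a kinome-wide profiling panel, RET as the panel member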
[49] = biological target: Dual specificity protein kinase CLK4 (Homo sapiens, UniProt Q9HAZ1)
[50] = biological target: Glycogen synthase kinase-3 beta (Homo sapiens, UniProt P49841);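 note: value comes from a broad kinome profiling panel, with GSK3B as the panel member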
[51] = biological target: Aurora kinase A (Homo sapiens, UniProt O14965);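 note: value from the Navigating the Kinome kinase panel profiling, panel entry STK6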
[52] = biological target: Tyrosine-protein kinase ABL1 (Homo sapiens, UniProt P00519)
[53] = biological target: Serine/threonine-protein kinase N2 (Homo sapiens, UniProt Q16513)
[54] = biological target: Serine/threonine-protein kinase pim-1 (Homo sapiens, UniProt P11309)
[55] = biological target: Mitogen-activated protein kinase 9 (Homo sapiens, UniProt P45984);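 note: value from a kinome panel profiling assay, MAPK9 panel entry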
[56] = biological target: Tyrosine-protein kinase Fyn (Homo sapiens, UniProt P06241)
[57] = biological target: Tyrosine-protein kinase BTK (Homo sapiens, UniProt Q06187)
[58] = biological target: G protein-coupled receptor kinase 5 (Homo sapiens, UniProt P34947); test: Navigating the Kinome. Panel member name: GPRK5

cAMP-dependent protein kinase catalytic subunit PRKX, sequence (P51817 whole entry): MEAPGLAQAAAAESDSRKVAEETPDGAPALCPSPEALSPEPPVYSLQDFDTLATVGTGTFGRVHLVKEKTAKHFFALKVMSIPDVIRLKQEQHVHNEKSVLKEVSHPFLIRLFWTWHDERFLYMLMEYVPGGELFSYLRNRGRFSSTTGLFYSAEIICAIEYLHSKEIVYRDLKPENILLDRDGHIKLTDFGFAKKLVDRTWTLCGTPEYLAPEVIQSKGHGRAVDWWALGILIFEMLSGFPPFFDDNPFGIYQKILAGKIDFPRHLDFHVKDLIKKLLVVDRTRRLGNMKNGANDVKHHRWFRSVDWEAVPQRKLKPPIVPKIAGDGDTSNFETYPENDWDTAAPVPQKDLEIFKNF
5'-AMP-activated protein kinase catalytic subunit alpha-1, sequence (Q13131 whole entry): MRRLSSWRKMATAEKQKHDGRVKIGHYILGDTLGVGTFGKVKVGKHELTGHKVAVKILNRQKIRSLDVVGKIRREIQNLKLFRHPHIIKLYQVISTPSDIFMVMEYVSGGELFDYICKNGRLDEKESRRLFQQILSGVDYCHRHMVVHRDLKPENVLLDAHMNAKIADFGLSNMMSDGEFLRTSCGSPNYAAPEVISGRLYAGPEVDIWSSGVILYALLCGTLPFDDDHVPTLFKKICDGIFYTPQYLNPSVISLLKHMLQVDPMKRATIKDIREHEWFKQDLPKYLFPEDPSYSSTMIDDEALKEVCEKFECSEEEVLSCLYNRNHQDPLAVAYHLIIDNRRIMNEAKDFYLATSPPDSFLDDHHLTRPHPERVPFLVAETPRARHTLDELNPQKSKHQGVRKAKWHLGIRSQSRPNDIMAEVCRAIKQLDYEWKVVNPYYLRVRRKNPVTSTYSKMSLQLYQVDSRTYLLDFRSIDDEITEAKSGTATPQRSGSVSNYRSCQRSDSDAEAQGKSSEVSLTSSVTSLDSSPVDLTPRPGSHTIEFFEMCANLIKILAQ
Macrophage-stimulating protein receptor, sequence (Q04912 25-304 limits assumed): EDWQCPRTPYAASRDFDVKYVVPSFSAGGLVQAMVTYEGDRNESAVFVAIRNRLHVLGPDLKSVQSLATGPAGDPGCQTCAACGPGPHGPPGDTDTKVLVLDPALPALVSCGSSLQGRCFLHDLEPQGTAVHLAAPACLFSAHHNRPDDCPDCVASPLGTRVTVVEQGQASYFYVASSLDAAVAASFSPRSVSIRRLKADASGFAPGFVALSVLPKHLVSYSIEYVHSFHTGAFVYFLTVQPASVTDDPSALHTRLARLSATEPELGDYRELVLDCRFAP
Macrophage-stimulating protein receptor, sequence (Q04912 310-1400 limits assumed): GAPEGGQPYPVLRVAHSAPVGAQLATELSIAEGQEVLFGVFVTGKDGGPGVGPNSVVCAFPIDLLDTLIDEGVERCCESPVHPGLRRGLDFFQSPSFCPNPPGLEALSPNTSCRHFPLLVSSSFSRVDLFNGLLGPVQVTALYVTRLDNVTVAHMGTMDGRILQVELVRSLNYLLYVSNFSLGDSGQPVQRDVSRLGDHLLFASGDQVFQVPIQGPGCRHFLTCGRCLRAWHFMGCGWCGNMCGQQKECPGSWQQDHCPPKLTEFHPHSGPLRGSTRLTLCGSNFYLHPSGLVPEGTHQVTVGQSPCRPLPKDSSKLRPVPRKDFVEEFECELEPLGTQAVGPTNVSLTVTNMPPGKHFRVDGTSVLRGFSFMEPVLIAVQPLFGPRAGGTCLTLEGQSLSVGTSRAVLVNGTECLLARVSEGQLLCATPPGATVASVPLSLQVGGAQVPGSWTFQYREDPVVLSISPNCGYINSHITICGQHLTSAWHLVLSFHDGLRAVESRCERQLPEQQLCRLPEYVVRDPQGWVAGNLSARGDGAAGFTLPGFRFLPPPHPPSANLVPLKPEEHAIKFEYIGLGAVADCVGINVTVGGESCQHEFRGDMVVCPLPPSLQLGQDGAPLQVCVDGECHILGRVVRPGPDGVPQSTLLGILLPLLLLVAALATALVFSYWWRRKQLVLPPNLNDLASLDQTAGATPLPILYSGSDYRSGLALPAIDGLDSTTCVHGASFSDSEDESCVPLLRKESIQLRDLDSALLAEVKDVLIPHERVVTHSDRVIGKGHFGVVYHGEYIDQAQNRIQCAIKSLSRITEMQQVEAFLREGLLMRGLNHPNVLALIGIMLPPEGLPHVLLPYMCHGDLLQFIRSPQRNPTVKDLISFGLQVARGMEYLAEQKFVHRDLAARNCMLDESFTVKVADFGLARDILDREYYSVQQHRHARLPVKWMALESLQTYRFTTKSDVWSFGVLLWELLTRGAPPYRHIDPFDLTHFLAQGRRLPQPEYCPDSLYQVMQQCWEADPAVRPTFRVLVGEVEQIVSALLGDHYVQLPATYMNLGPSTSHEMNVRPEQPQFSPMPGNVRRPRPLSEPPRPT
Serine/threonine-protein kinase TAO1, sequence (Q7L7X3 whole entry): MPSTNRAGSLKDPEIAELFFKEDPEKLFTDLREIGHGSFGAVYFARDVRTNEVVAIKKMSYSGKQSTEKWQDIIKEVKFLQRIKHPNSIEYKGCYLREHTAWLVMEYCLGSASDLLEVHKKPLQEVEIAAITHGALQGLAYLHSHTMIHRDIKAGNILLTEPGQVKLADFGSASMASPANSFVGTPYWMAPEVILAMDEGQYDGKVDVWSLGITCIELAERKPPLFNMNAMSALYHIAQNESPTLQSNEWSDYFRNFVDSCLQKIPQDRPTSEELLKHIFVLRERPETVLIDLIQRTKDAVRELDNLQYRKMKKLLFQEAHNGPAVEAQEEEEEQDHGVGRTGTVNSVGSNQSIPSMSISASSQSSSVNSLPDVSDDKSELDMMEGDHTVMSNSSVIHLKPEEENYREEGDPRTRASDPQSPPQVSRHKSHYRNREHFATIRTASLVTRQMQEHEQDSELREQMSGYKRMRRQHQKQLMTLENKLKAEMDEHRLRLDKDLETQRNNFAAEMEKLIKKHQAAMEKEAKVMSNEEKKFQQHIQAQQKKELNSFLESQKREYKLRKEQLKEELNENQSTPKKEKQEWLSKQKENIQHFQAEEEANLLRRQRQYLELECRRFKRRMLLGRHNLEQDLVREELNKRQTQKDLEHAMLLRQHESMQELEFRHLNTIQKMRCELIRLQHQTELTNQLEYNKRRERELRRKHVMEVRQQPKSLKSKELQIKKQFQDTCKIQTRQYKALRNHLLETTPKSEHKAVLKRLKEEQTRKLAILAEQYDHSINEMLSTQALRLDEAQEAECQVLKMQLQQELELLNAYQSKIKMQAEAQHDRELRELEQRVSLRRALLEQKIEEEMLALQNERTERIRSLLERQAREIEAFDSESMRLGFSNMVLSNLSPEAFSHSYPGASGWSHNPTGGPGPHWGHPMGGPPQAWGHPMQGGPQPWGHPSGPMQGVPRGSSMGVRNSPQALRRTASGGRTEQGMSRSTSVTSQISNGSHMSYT
Tyrosine-protein kinase Lck, sequence (P06239 whole entry): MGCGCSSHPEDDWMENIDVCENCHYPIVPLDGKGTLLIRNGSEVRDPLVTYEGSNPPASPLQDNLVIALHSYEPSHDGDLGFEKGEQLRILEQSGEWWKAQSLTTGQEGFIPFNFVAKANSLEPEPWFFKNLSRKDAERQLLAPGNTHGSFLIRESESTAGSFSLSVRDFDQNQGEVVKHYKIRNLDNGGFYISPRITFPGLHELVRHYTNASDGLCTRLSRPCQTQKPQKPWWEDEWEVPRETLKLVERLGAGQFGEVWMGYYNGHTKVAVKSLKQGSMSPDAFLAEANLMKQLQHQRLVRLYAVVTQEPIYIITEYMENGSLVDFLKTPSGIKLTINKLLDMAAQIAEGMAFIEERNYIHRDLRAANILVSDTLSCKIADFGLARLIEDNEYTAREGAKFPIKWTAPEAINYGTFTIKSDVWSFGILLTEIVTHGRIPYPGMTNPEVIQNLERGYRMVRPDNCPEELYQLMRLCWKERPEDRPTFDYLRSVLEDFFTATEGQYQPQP
Serine/threonine-protein kinase TBK1, sequence (Q9UHD2 whole entry): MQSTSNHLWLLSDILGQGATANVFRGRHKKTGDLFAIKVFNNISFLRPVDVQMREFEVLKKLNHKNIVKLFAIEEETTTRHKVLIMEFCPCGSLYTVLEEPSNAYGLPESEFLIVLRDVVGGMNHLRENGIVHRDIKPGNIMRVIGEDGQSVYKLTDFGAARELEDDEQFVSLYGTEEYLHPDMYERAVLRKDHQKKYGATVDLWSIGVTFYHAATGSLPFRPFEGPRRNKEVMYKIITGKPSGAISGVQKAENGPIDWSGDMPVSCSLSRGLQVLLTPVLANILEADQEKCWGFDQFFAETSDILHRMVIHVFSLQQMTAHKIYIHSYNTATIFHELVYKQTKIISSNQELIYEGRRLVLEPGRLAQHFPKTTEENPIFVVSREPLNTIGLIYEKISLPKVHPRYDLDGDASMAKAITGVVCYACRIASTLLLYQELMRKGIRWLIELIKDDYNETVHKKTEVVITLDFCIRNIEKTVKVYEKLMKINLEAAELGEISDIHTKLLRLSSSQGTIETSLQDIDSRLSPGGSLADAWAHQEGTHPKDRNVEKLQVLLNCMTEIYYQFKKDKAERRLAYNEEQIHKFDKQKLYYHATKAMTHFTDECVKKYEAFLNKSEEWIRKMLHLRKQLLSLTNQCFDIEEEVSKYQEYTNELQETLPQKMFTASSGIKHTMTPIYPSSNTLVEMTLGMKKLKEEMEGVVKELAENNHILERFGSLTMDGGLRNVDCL
Dual specificity protein kinase CLK4, sequence (Q9HAZ1 whole entry): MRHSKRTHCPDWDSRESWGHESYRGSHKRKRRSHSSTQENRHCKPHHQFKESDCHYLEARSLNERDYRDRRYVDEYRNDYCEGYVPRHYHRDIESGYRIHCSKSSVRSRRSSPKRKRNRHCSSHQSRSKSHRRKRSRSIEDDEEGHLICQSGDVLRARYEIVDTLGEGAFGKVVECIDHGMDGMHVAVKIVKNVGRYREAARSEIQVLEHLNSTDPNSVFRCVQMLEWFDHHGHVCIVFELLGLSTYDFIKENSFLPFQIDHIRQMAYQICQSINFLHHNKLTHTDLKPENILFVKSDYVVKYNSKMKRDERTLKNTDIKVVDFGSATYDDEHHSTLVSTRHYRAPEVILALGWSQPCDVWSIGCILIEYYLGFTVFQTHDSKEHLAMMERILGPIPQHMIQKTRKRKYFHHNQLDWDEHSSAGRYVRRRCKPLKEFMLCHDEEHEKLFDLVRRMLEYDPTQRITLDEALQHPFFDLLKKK

O=C(NCc1ccccc1)c1cc2ncc(Br)cn2n1
IC50 [1]: > 99 µM (inactive) | IC50 [2]: > 99 µM (inactive)

COc1cc2ncc3c(N)nc4c(C)c(N)ccc4c3c2cc1OC
Ki [3]: 0.0631 µM (active) | Ki [4]: > 2.51 µM (inactive) | Ki [5]: > 5.01 µM (inactive) | Ki [6]: > 3.98 µM (inactive) | Ki [7]: > 3.98 µM (inactive) | Ki [8]: > 3.16 µM (inactive) | Ki [9]: > 2.51 µM (inactive) | Ki [10]: > 2.51 µM (inactive) | Ki [11]: 3.16 µM (active) | Ki [12]: > 100 µM (inactive) | Ki [13]: > 3.98 µM (inactive) | Ki [14]: > 3.98 µM (inactive) | Ki [15]: > 1.58 µM (inactive) | Ki [16]: > 3.16 µM (inactive) | Ki [17]: > 2.51 µM (inactive) | Ki [18]: > 2.51 µM (inactive) | Ki [19]: > 2.51 µM (inactive) | Ki [20]: > 2 µM (inactive) | Ki [21]: > 7.94 µM (inactive) | Ki [22]: > 3.98 µM (inactive) | Ki [23]: > 3.98 µM (inactive) | Ki [24]: > 3.98 µM (inactive) | Ki [25]: > 2.51 µM (inactive) | Ki [26]: > 2.51 µM (inactive) | Ki [27]: > 6.31 µM (inactive) | Ki [28]: 0.158 µM (active) | Ki [29]: 3.98 µM (active) | Ki [30]: > 3.16 µM (inactive) | Ki [31]: > 5.01 µM (inactive) | Ki [32]: > 3.16 µM (inactive) | Ki [33]: > 3.98 µM (inactive) | Ki [34]: > 3.98 µM (inactive) | Ki [35]: > 3.98 µM (inactive) | Ki [36]: > 3.16 µM (inactive) | Ki [37]: > 3.98 µM (inactive) | Ki [38]: > 5.01 µM (inactive) | Ki [39]: > 2.51 µM (inactive) | Ki [40]: > 3.98 µM (inactive) | Ki [41]: > 3.16 µM (inactive) | Ki [42]: > 3.16 µM (inactive) | Ki [43]: > 3.16 µM (inactive) | Ki [44]: > 6.31 µM (inactive) | Ki [45]: > 3.16 µM (inactive) | Ki [46]: > 6.31 µM (inactive) | Ki [47]: > 1.26 µM (inactive) | Ki [48]: > 3.16 µM (inactive) | Ki [49]: > 2.51 µM (inactive) | Ki [50]: > 3.98 µM (inactive) | Ki [51]: > 1.58 µM (inactive) | Ki [52]: > 3.98 µM (inactive) | Ki [53]: > 5.01 µM (inactive) | Ki [54]: > 6.31 µM (inactive) | Ki [55]: > 3.98 µM (inactive) | Ki [56]: > 6.31 µM (inactive) | Ki [57]: > 6.31 µM (inactive) | Ki [58]: > 3.98 µM (inactive)
